Entries after “also recorded” stand apart in the source; their conditions may differ.
Experiments:
[1] = test system: p62/SQSTM-1; test: p62/SQSTM-1 level, western blot and immunofluorescence; format: cell-based, human; conditions: U87-MG, 24 h; western blot, immunofluorescent microscopy
Description: U87-MG tumor cells were treated with compound 1 or hydroxychloroquine (an autophagy inhibitor) for 24 h or a cocktail of proteasome inhibitors (bortezomib, BTZ and MG-132) for 2 h. P62 and tubulin levels were determined by western blot.
(§1) U87-MG tumor cells were treated with Y100, hydroxychloroquine (an autophagy inhibitor) or rapamycin (an autophagy inducer) for 24 hours. LC3B-I to LC3-II conversion and tubulin levels were determined by western blot.
Western Blotting. U87-MG cells were plated at a concentration of 500,000 cells per well in a 6-well plate and allowed to adhere overnight. Cells were treated with the noted concentrations and times of controls or compound 1. After treatment, cells were harvested with trypsin, rinsed, and lysed with approximately 75 microliters RIPA buffer with protease and phosphatase inhibitors per 500,000 cells. Protein was quantified with a BCA assay kit (Pierce). 30 micrograms of protein was separated on a 4-15% SDS-PAGE gel (Bio-Rad) by SDS gel electrophoresis. Protein was transferred to a nitrocellulose membrane, blocked with 5% milk in TBST and probed with LC3B (Cell Signaling, 1:1000, overnight), p62/SQSTM-1 (Santa Cruz, 1:1000, 1 h), tubulin (Santa Cruz, 1:10000, 1 h), K63 ubiquitin (Cell Signaling, 1:1000, 1 h), K48 ubiquitin (Cell Signaling, 1:2000, 1 h) in 2% milk in TBST. […]

[2] = test system: LC3B-II; test: LC3B accumulation, western blot and immunofluorescence; format: cell-based, human; conditions: U87-MG, 24 hours; western blot, immunofluorescent microscopy
Description: as §1
(§2) Western Blotting. U87-MG cells were plated at a concentration of 500,000 cells per well in a 6-well plate and allowed to adhere overnight. Cells were treated with the noted concentrations and times of controls or compound 1. After treatment, cells were harvested with trypsin, rinsed, and lysed with approximately 75 microliters RIPA buffer with protease and phosphatase inhibitors per 500,000 cells. Protein was quantified with a BCA assay kit (Pierce). 30 micrograms of protein was separated on a 4-15% SDS-PAGE gel (Bio-Rad) by SDS gel electrophoresis. Protein was transferred to a nitrocellulose membrane, blocked with 5% milk in TBST and probed with LC3B (Cell Signaling, 1:1000, overnight), p62/SQSTM-1 (Santa Cruz, 1:1000, 1 h), tubulin (Santa Cruz, 1:10000, 1 h), K63 ubiquitin (Cell Signaling, 1:1000, 1 h), K48 ubiquitin (Cell Signaling, 1:2000, 1 h) in 2% milk in TBST. Secondary labeling was performed with a one hour incubation in 1:20000 anti-rabbit HRP or 1:10000 anti-mouse HRP (Jackson Immunoresearch) diluted in 2% milk in TBST. Film was then exposed to ECL-coated blots (Pierce) and developed using a standard film processor.

[3] = test system: control strains; test: Yeast growth assay, control strains (OD 600 nm); format: cell-based, Saccharomyces cerevisiae; conditions: increasing concentrations, 18 hours
Description: (§3) IRA2 is a yeast homolog of human NF1. Cells were grown in the presence of increasing concentrations of compound 1 for 18 hours. The absorbance (OD 600 nm) was measured as a surrogate marker of cell growth. The assay has been described previously: see Sanchez et al., Mol. Cancer Ther. 2011 Sep.: 10(9):1740-1750.
as §3, with “Y100B” for “compound 1”

[4] = test system: lysine 63 and lysine 48 polyubiquitin linked-proteins; test: K63/K48 polyubiquitin western blot in U87-MG cells; format: cell-based, human; conditions: 24 hours, comparable to HCQ (50 uM, 24 h) or MG132 plus bortezomib cocktail
Description: as §2

[5] = test system: U87-MG cells; test: MitoSOX Red flow cytometry for mitochondrial superoxide; format: cell-based, human; conditions: 24 h of treatment
Description: Flow Cytometry. To determine mitochondrial superoxide levels, 500,000 U87-MG cells/well were plated to a 6-well plate and allowed to adhere overnight. The medium was then replaced with cell culture media containing DMSO or Y100. Cells were treated for 24 hours. 30 minutes before the end of the incubation, 1 micromolar MitoSOX Red was added. At the end of the incubation, cells were rinsed with PBS and trypsinized, and then rinsed two more times. The cells were transferred to flow cytometry tubes and analyzed using a MacsQuant VYB 8-color flow cytometer. MitoSOX Red fluorescence was detected using the Y1-A (PE) channel. 30,000 events per sample were collected. Histograms were generated using the FlowJo flow cytometry analysis software package.

[6] = test system: U251-MG cells; test: Mitochondrial immunofluorescence (Mitotracker Red / TOMM20) in U251-MG cells; format: cell-based, human; conditions: Mitotracker Red and TOMM20
[7] = test system: lysine 63 and lysine 48 polyubiquitin linked-proteins; test: K63/K48 polyubiquitin western blot in U251-MG cells; format: cell-based, human; conditions: 24 hours, comparable to HCQ (50 uM, 24 h) or MG132 plus bortezomib cocktail
[8] = test system: U87-MG cells; test: Mitochondrial immunofluorescence (Mitotracker Red / TOMM20) in U87-MG cells; format: cell-based, human; conditions: 24 hours, Mitotracker Red and TOMM20
Description: Polarized mitochondria are labeled with Mitotracker Red, while all mitochondria are labeled with an antibody specific to the mitochondrial protein TOMM20.
Immunofluorescence. U87-MG cells were cultured on poly-D-lysine coated coverslips (Neuvitro Corporation) or poly-L-lysine coated coverslips and treated with Compound 1 (Chembridge) for 24 hours. For the last 30 minutes of treatment, cells were labeled with 100 nM Mitotracker Red (Life Technologies). After treatment and labeling, cells were rinsed with PBS. Cells were fixed in 4% methanol-free paraformaldehyde (Electron Microscopy Services) in PBS (Corning) for 10 minutes at room temperature and blocked with immunofluorescence buffer (2% [v/v] goat serum, 0.2% [v/v] Triton X-100 and 0.05% [w/v] sodium azide in PBS) at RT. TOMM20 was labeled using 1:200 rabbit anti-TOM20 (Santa Cruz) at room temperature for one hour, and cells were rinsed 3 times for 5 minutes with PBST. Secondary labeling was performed with 1:600 goat anti-rabbit F(ab′) 2 DyLight 488 at room temperature for 1 hour (Jackson Immunoresearch) diluted in IF buffer. Cells were then rinsed 2 times for five minutes with PBST and then nuclei were labeled with DAPI in PBS for 5 minutes. Coverslips were mounted on glass slides with ProLong Gold (Life Technologies). […]

[9] = test system: NF1-deficient tumor cells (U87-MG); test: alamarBlue viability/growth assay in U87-MG cells; format: cell-based, human
Description: Cells were incubated with drug for 15 minutes-72 h. At the noted times, the drug was removed, cells were rinsed with PBS, and replaced with normal media. At 69 hours, 5 uL of alamarBlue viability assay reagent was added to each well. At 72 h, the fluorescence was measured (Ex/Em 544/590 nm) as a surrogate indicator of viability. All values were normalized to the fluorescence observed in a vehicle (DMSO) control.
Cells were incubated with drug for 3 or 7 days. 3 hours before the end of the experiment, 5 uL of alamarBlue viability assay reagent was added to each well. At the end of each timepoint, the fluorescence was measured (Ex/Em 544/590 nm) as a surrogate indicator of viability. All values were normalized to the fluorescence observed in a vehicle (DMSO) control.
Viability Assay. Cells are cultured on plastic 96-well plates. Cell viability is estimated using metabolism as a surrogate marker via the ALAMARBLUE viability/proliferation assay (AbD Serotec; Kidlington, UK) according to the protocol of the manufacturer. The modification of the ALAMARBLUE reagent to a fluorescent substrate is measured with a fluorimeter, after which fluorescent intensity is normalized as a percentage of the vehicle control. Assays are done in triplicate.
Dose Response Assays (Mammalian Cells). To perform drug sensitivity assays, U87-MG cells were plated to 96-well plates at a concentration of 5000 cells/well. After overnight incubation, medium was removed and replaced with 100 μL of medium containing 0-20 uM Compound 1 and DMSO (to normalize DMSO concentrations). In the case of the beta-mercaptoethanol and N-acetyl cysteine co-treatment assays, cells were preincubated with these compounds or a vehicle control for 2 h before being replaced with Y100+/− N-acetyl cysteine, beta-mercaptoethanol or vehicle. Cells were incubated for the noted time with a final 3-hour incubation in 5% AlamarBlue (Thermo Scientific). The plate was scanned at an Ex/Em of 544/590 nm, and fluorescence was normalized to vehicle control wells. Dose-response curves and IC50s were calculated with the Prism 6 software package (GraphPad, San Diego, Calif., USA) by performing a 4-parameter logistic regression with outlier exclusion analysis.

[10] = test system: yeast model of NF1 deficiency (IRA2, yeast homolog of human NF1); test: Yeast growth assay, yeast model of NF1 deficiency (OD 600 nm); format: cell-based, Saccharomyces cerevisiae; conditions: increasing concentrations, 18 hours
Description: as §3
as §3, with “Y100B” for “compound 1”

[11] = ROS scavenger co-treated for 72 hours, alamarBlue

SMILES | autophagy marker p62/SQSTM-1 (P62 accumulation) [1] | LC3B accumulation (LC3B-I to LC3-II conversion) [2] | growth of control yeast strains (absorbance OD 600 nm) [3] | accumulation of lysine 63 and lysine 48 polyubiquitin linked-proteins [4] | formation and/or accumulation of mitochondrial superoxide (MitoSOX Red) [5] | formation of polarized mitochondrial hotspots [6] | accumulation of lysine 63 and lysine 48 polyubiquitin linked-proteins [7] | formation of polarized mitochondrial hotspots [8] | effect on U87-MG cells on co-treatment with N-acetyl cysteine (NAC) [9, 11] | effect on U87-MG cells on co-treatment with β-mercaptoethanol [9, 11] | effect on cell viability/growth on pretreatment and co-treatment with buthionine sulfoximine (BSO) ([9]; U87-MG, 3-day alamarBlue assay) | drug exposure time giving an irreversible effect on cell viability/growth ([9]; U87-MG, drug removed after 15 minutes-72 h, alamarBlue read at 72 h) [min] | growth / cell death of NF1-deficient yeast (absorbance OD 600 nm) [10] | viability and/or growth of U87 MG cells (alamarBlue) ([9]; incubated with drug for 3 or 7 days)
CCN(CCO)CCCC(C)Nc1ccnc2cc(Cl)ccc12 (stereo not drawn) [hydroxychloroquine] | induces P62 accumulation | induces accumulation of the autophagy marker LC3B-II |  |  |  |  |  |  |  |  |  |  |  | 
CCOC(=O)c1ccc2c3c(onc13)-c1ccccc1C2=O [compound 1] | modulates the autophagy marker and ubiquitin binding scaffold protein p62/SQSTM-1; also recorded: induces P62 accumulation | not LC3B accumulation | without affecting the control strains | induces the accumulation of lysine 63 and lysine 48 polyubiquitin linked-proteins | induces the formation and/or accumulation of mitochondrial superoxide | induces the formation of polarized mitochondrial hotspots | induces the accumulation of lysine 63 and lysine 48 polyubiquitin linked-proteins | induces the formation of polarized mitochondrial hotspots | abrogate the effect of compound 1 | abrogate the effect of compound 1 | potentiates the effect of compound 1 on cell viability/growth | ≤ 15 | selectively inhibits growth or induces cell death | 
COC(=O)c1ccc2c3c(onc13)-c1ccccc1C2=O [compound 2] |  |  | without affecting the control strains |  |  |  |  |  |  |  |  |  | selectively inhibits growth or induces cell death | reduces viability and/or growth
